Experimental data taken from patent US10532064B2, “Biophosphonate compounds and gamma delta T cell-mediated therapy for treating epstein-barr virus-associated disorders” (priority 2014, dated 2020).

How the values were obtained:
[1] = system: cytolytic activities of Vγ9Vδ2-T cells against EBV-LCL; assay: Blocking of Vγ9Vδ2-T cell cytotoxicity against EBV-LCL by inhibitors and neutralizing antibodies; assay type: cell-based, human; conditions: E:T 10:1; antibodies 10 μg/ml, CMA and Bcl-2 1 μg/ml
Protocol: FIG. 1A: Phenotypes of EBV-LCL and autologous normal human B cells. The white histograms represent MICA/B, Fas, FasL DR4 and DR5, and the gray histograms represent isotype controls. […] FIG. 1C, 1D, 1G: PAM-expanded Vγ9Vδ2 T cells purified by positive selection were co-cultured with autologous EBV-LCL or normal B cells at different E:T ratios (FIG. 1C) or an E:T ratio of 10:1 (FIGS. 1D and 1G) for 4-6 hours. FIG. 1D: The Vγ9Vδ2 T cells were directly co-cultured with or physically separated from autologous EBV-LCLs for 6 hours by using a transwell system. […] FIG. 1G: The perforin inhibitor CMA, granzyme B inactivator Bcl-2, anti-NKG2D (αNKG2D), anti-TRAIL (αTRAIL) and anti-FasL (αFasL) blocking antibodies, or their relevant isotype control (mouse IgG1, mIgG1) were used in co-culture of EBV-LCL and their autologous PAM-expanded Vγ9Vδ2 T cells. The cytotoxicity was shown as the percentage of inhibition relative to those without any treatment. All the data shown as mean±SEM are representative of four independent experiments. *p<0.05.

Vγ9Vδ2-T cells = assay: Expansion of Vγ9Vδ2-T cells from huPBMC in vitro with PAM and IL-2; assay type: cell-based, human
Protocol: The data are representative of 4 independent experiments. […] Data are representative of 4 independent experiments. […] Data are representative of 4 independent experiments.
Briefly, huPBMC were cultured in RPMI 1640 medium supplemented with 10% FBS. Pamidronate was added at day 0 and day 3 to a final concentration 9 μg/ml.
Human PBMCs were isolated from buffy coat preparation or anticoagulated peripheral blood by Ficoll-paque (GE Health life Science) gradient centrifugation. The PBMCs were cultured in 10% FBS-RPMI1640 supplemented with 15 ul of expansion reagent A; 25 ul of expansion reagent B was added from day 3 post culture. […] Data are representative for 4 independent experiments.

EBV-LPD [2] = assay: Control of EBV-LPD by pamidronate in humanized mice (whole huPBMC); assay type: in vivo
Protocol: FIG. 8A: Protocol for the control of EBV-LPD by pamidronate (PAM) in humanized mice. Humanized mice were treated with PAM or PBS at day 0, 7, 14, 21, 28 after inoculation of EBV-LCL. FIG. 8B-8D: After treatment with PAM (n=8) or PBS (n=7), the survival (FIG. 8B), tumor incidence (FIG. 8C) and tumor volume (FIG. 8D) were measured at the indicated time.
(§1) Vγ9Vδ2-T-cell-depleted huPBMC were obtained after double depletions of […] by positive selection with magnetic microbeads. Rag2^−/−γc^−/− mice were transplanted with whole huPBMC or Vγ9Vδ2-T-cell-depleted huPBMC from the same healthy human donor. […] Humanized mice reconstituted with whole huPBMC (PBMC) or Vγ9Vδ2-T-cell-depleted huPBMC (PBMC-γδ-T) were inoculated with EBV-LCL and treated with pamidronate or PBS according to the protocol shown in FIG. 8A. The survival (FIG. 9A), tumor incidence (FIG. 9B) and tumor volume (FIG. 9C) in humanized mice (PBMC+PAM, n=12; PBMC-γδ-T+PAM, n=7; PBMC-γδ-T+PBS, n=6) are shown.
All animal studies were approved and performed in compliance with the guidelines for the use of experimental animals by the Committee on the Use of Live Animals in the Teaching and Research, the University of Hong Kong. Humanized mice were generated in 4-5 weeks old male or female Rag2^−/−γc^−/− mice by reconstitution of EBV seropositive whole huPBMC or Vγ9Vδ2-T-cell-depleted huPBMC as we described before (Tu et al., 2011). […] Humanized mice or 6-8 week old Rag2^−/−γc^−/− mice were inoculated s.c. with EBV-LCL or EGFP-expressing EBV-LCL (0.1×10^6/mouse). […] For humanized mice, a human equivalent dose of PAM (10 mg/kg body weight; Pamisol; Hospira Austrilia Pty Led) was injected i.p. at indicated time. The mice treated with an equivalent volume of PBS were used as controls. The signs of disease (loss of activity, weight loss, ruffled hair, palpable tumors, and ascites) and survival of mice were monitored. Mice with more than 17 mm of diameter subcutaneous tumor were sacrificed and counted as dying. Otherwise, mice were followed for 100 or 170 days and then killed. All mice were examined for postmortem evidence of tumor. The tumors and organs were collected for histology and immunohistochemistry assays.
After inoculation with EBV-LCL (1×10^5/mouse) s.c., humanized mice were injected intraperitoneally (i.p.) with pamidronate (10 mg/kg body weight) at day 0, 7, 14, 21 and 28 post EBV-LCL inoculation (FIG. 8A). PBS-treated mice were used as controls.
Mice reconstituted with whole huPBMC or Vγ9Vδ2-T-cell-depleted huPBMC were inoculated with EBV-LCLs s.c. and injected with pamidronate (10 mg/kg body weight) i.p. at day 0, 7, 14, 21 and 28 post EBV-LCL inoculation.

EBV-LPD [3] = assay: Pamidronate in humanized mice reconstituted with Vγ9Vδ2-T-cell-depleted huPBMC; assay type: in vivo; conditions: 10 mg/kg i.p. day 0, 7, 14, 21, 28
From the text: as §1
All animal studies were approved and performed in compliance with the guidelines for the use of experimental animals by the Committee on the Use of Live Animals in the Teaching and Research, the University of Hong Kong. Humanized mice were generated in 4-5 weeks old male or female Rag2^−/−γc^−/− mice by reconstitution of EBV seropositive whole huPBMC or Vγ9Vδ2-T-cell-depleted huPBMC as we described before (Tu et al., 2011). […] The signs of disease (loss of activity, weight loss, ruffled hair, palpable tumors, and ascites) and survival of mice were monitored. Mice with more than 17 mm of diameter subcutaneous tumor were sacrificed and counted as dying. […]

[4] = post 20 days of in vitro culture in the presence of PAM and IL-2
[5] = Example 5, vs PBS-treated humanized mice
[6] = Example 6, humanized mice with whole huPBMC

Molecule	effect on cytolytic activity of Vγ9Vδ2-T cells against EBV-LCL [1]	activation and expansion of Vγ9Vδ2-T cells (Vγ9Vδ2-T cells; huPBMC, PAM 9 μg/mL, rhIL-2 from day 3)	expansion of Vγ9Vδ2-T cells (mean) (Vγ9Vδ2-T cells; [4])	expansion of Vγ9Vδ2-T cells (range) (Vγ9Vδ2-T cells; [4])	percentage of Vγ9Vδ2-T cells within the PBMCs (mean) (Vγ9Vδ2-T cells; [4])	percentage of Vγ9Vδ2-T cells within the PBMCs (range) (Vγ9Vδ2-T cells; post 20 days of in vitro culture in the presence of PAM and IL-2, baseline 1-5% (mean 3%), 4 experiments)	mice died within 100 days (EBV-LPD [2]; 10 mg/kg i.p. day 0, 7, 14, 21, 28, 1 out of 8 mice, all PBS mice died)	mice with subcutaneous tumor growth within 100 days (EBV-LPD [2]; 10 mg/kg i.p. day 0, 7, 14, 21, 28, 3 out of 8 mice)	frequency of Vγ9Vδ2-T cells in the peripheral blood (EBV-LPD [2]; 10 mg/kg i.p., vs PBS)	persistence of Vγ9Vδ2-T cells in the peripheral blood (EBV-LPD [2]; EBV-LCL-grafted humanized mice, pamidronate-treated)	survival (EBV-LPD [2]; Example 5, PAM n=8 vs PBS n=7)	tumor incidence (EBV-LPD [2]; [5])	tumor volume (EBV-LPD [2]; [5])	tumor occurrence (EBV-LPD [2]; [6])	tumor volume (EBV-LPD [2]; [6])	survival (EBV-LPD [2]; Example 6, humanized mice with whole huPBMC, n=12)	tumor metastasis in other organs at necropsy (EBV-LPD [2]; day 100, surviving 7 mice)	effects on survival, tumor occurrence and tumor volume (EBV-LPD [3])
C/C=C/[C@H]1O[C@@](O)([C@@H](C)[C@H](O)[C@H](C)[C@H]2OC(=O)/C(OC)=C/C(C)=C/[C@@H](C)[C@@H](O)[C@@H](CC)[C@@H](O)[C@H](C)C/C(C)=C/C=C/[C@@H]2OC)C[C@@H](O[C@H]2C[C@@H](O)[C@H](OC(N)=O)[C@@H](C)O2)[C@@H]1C [CMA, concanamycin A]	strongly inhibited																	
NCCC(O)(P(=O)(O)O)P(=O)(O)O [pamidronate]		induced selective activation and expansion	198 fold	156-309 fold	82%	67-95%	12.5%	37.5%	significantly increased	up to 98 days	significantly prolonged	significantly lower tumor incidence	reduced tumor volume	reduced tumor occurrence	decreased tumor volume	significantly prolonged survival	failed to show any evidence of tumor metastasis	had no such effects
Bcl-2: granzyme B inactivator Bcl-2 (R&D Systems)	strongly inhibited																	
